Publication PMC10648877, “Novel Substituted Azoloazines with Anticoagulant Activity” (International Journal of Molecular Sciences, 2023)

Columns and labels:
[1] = tested on: platelet-poor plasma (PPP); assay: Prothrombin time (PT), rabbit blood coagulogram in vitro; conditions: 100 μM, M ± m, n = 6;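 further: clotting time read chronometrically on a hemocoagulometer using commercial reagent kits, with dabigatran etexilate at the same concentration as reference anticoagulant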
Experimental: The study was performed on platelet-poor plasma (PPP) stabilized with a 3.8% sodium citrate solution in a ratio of 9:1 according to the method described in [34]. Dabigatran etexilate (Boehringer Ingelheim Pharma GmbH and Co., Ingelheim am Rhein, Germany) was used as the reference drug. Test compounds and the reference drug were evaluated at a concentration of 100 μM. Effect on rabbit blood coagulograms in vitro was determined chronometrically with a SOLAR hemocoagulometer (Minsk, Belarus) using commercial kits (Technology-Standard, Barnaul, Russia) as per the manufacturer’s instructions. The following parameters were determined: activated partial thromboplastin time, thrombin time, and prothrombin time.

[2] = tested on: platelet-poor plasma (PPP); assay: Activated partial thromboplastin time (APTT), rabbit blood coagulogram in vitro; format: biochemical; conditions: 100 μM, M ± m, n = 6;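 further: clotting time read chronometrically on a hemocoagulometer with commercial reagent kits, one of several coagulogram parameters alongside thrombin and prothrombin time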
Experimental: Test compounds and the reference drug were evaluated at a concentration of 100 μM. Effect on rabbit blood coagulograms in vitro was determined chronometrically with a SOLAR hemocoagulometer (Minsk, Belarus) using commercial kits (Technology-Standard, Barnaul, Russia) as per the manufacturer’s instructions. The following parameters were determined: activated partial thromboplastin time, thrombin time, and prothrombin time.

[3] = tested on: platelet-poor plasma (PPP); assay: Thrombin time (TT), rabbit blood coagulogram in vitro; format: biochemical; conditions: rabbit blood in vitro, 100 μM; for TT: M ± m, n = 6

Row | melting point [°C] | SMILES | PT [1] [s] | APTT [2] [s] | TT [3] [s] | increase of thrombin time relative to the control [3] [times] | anticoagulant activity / thrombin time prolongation compared with dabigatran etexilate [3]
1 | – | Cc1cc2nc3c4ccccc4n(CCCN(C)C)c3nc2cc1C [Compound 1i] | 13.8 ± 0.3 | 32.1 ± 4.8 | 21.9 ± 1.2 | – | –
2 | – | C1=C(c2ccccc2)n2ncnc2NC1c1ccccc1 (centres unmarked) [Compound 5a] | 13.4 ± 0.1 | 26.3 ± 2.9 | 43.8 ± 4.3 | 3.5 | –
3 | – | CCCCn1c2ccccc2c2nc3ccccc3nc21 [Compound 1h] | 13.9 ± 0.1 | 25.7 ± 3.1 | 35.6 ± 1.1 | – | –
4 | – | CCOC(=O)C1=C(C)Nc2ncnn2C1c1ccccc1 (centres unmarked) [Compound 8c] | 14.2 ± 0.1 | 34.6 ± 0.7 | 34.7 ± 0.7 | – | –
5 | 270 to 272 | CCOC(=O)C1=C(C)Nc2ncnn2C1c1cccc(NC(=O)CN)c1 (centres unmarked) [Compound 10a, Ethyl 7-(3-(2-aminoacetamido)phenyl)-5-methyl-4,7-dihydro-[1,2,4]triazolo[1,5-a]pyrimi-dine-6-carboxylate] | 13.2 ± 1.0 | 30.9 ± 0.6 | 48.6 ± 22.4 | 3.5 | –
6 | > 260 | CCCCCCCCSc1nnc2nnc(NC(=N)N)nn12 [Compound 16a, 6-Guanidino-3-octylthio-[1,2,4]triazolo[4,3-b][1,2,4,5]tetrazine] | 12.2 ± 0.2 | 29.1 ± 1.4 | 34.3 ± 4.7 | – | –
7 | 169 to 171 | Nc1ccc(-c2cc(-c3ccc(N)cc3)n3ccnc3n2)cc1 [Compound 7a, 4,4′-(Imidazo[1,2-a]pyrimidine-5,7-diyl)dianiline] | 11.62 ± 1.00 | 56.23 ± 5.05 | 66.58 ± 4.64 | – | comparable to dabigatran etexilate in terms of activity
8 | – | C1=C(c2cccs2)n2ncnc2NC1c1ccccc1 (centres unmarked) [Compound 5c] | 13.9 ± 0.2 | 27.6 ± 1.9 | 41.4 ± 3.1 | – | –
9 | – | COC1C([N+](=O)[O-])=CNc2nc(C(F)(F)F)nn21 (centres unmarked) [Compound 12a, 2-Trifluoromethyl-6-nitro-7-methoxy-4,7-dihydro[1,5-a]pyrimidyl-4 guanidate] | 14.2 ± 0.1 | 25.1 ± 0.8 | 24.3 ± 3.5 | – | –
10 | 252 to 253 | N=C(N)Nc1nnc2nnc(SC3CCCC3)n2n1 [Compound 16b, 6-Guanidino-3-cyclopentylthio-[1,2,4]triazolo[4,3-b][1,2,4,5]tetrazine] | 13.9 ± 0.5 | 24.7 ± 1.2 | 22.7 ± 1.7 | – | –
11 | – | CN(C)CCCn1c2ccccc2c2nc3ccccc3nc21 [Compound 1j] | 14.2 ± 0.4 | 32.5 ± 0.1 | 22.0 ± 2.7 | – | –
12 | – | CCCn1c2ccccc2c2nc3cc(C)c(C)cc3nc21 [Compound 1e] | 13.4 ± 0.1 | 29.6 ± 0.2 | 38.0 ± 0.5 | – | –
13 | – | CCCCn1c2ccccc2c2nc3cc(C)c(C)cc3nc21 [Compound 1g] | 11.7 ± 0.4 | 30.6 ± 1.6 | 34.1 ± 0.9 | – | –
14 | – | Cc1cc2nc3c4ccccc4n(CCN(C)C)c3nc2cc1C [Compound 1a] | 14.5 ± 0.0 | 22.1 ± 5.9 | 22.7 ± 2.0 | – | –
15 | – | c1ccc2nc3c(nc2c1)c1ccccc1n3CCN1CCOCC1 [Compound 1d] | 13.4 ± 0.3 | 18.2 ± 0.5 | 26.7 ± 1.3 | – | –
16 | – | N=C(N)Nc1nnc2ncc(SCc3ccccc3)n2n1 [Compound 15a] | 14.5 ± 0.3 | 34.0 ± 0.6 | 32.8 ± 0.8 | – | –
17 | – | CCCn1c2ccccc2c2nc3ccccc3nc21 [Compound 1f] | 13.1 ± 0.3 | 24.8 ± 4.2 | 39.3 ± 1.8 | 3.5 | –
18 | – | C1=C(c2ccccc2)n2ncnc2NC1c1cccs1 (centres unmarked) [Compound 5b] | 15.8 ± 0.3 | 25.9 ± 2.2 | 21.0 ± 0.0 | – | –
19 | – | CCCCCCCCCCCCSc1cnc2nnc(NC(=N)N)nn12 [Compound 15b] | 14.0 ± 0.2 | 34.1 ± 0.5 | 33.7 ± 0.6 | – | –
20 | – | CN(C)CCn1c2ccccc2c2nc3ccccc3nc21 [Compound 1b] | 13.3 ± 0.2 | 26.8 ± 2.4 | 23.9 ± 0.9 | – | –
21 | – | O=[N+]([O-])C1=NNc2ncnn2C1O (centres unmarked) [Compound 14, 6-Nitro-7-hydroxy-4,7-dihydro-1,2,4-triazolo[5,1-c]triazinyl-4 guanidate] | 14.5 ± 0.5 | 24.5 ± 0.8 | 23.8 ± 3.5 | – | –
22 | – | Cc1cc2nc3c4ccccc4n(CCN4CCOCC4)c3nc2cc1C [Compound 1c] | 13.8 ± 0.4 | 27.1 ± 2.0 | 26.2 ± 1.0 | – | –
23 | 270 to 272 | CCOC(=O)C1=C(C)Nc2ncnn2C1c1ccc(NC(=O)CN)cc1 (centres unmarked) [Compound 10b, Ethyl 7-(4-(2-aminoacetamido)phenyl)-5-methyl-4,7-dihydro-[1,2,4]triazolo[1,5-a]pyrimi-dine-6-carboxy-late] | 12.7 ± 0.2 | 30.6 ± 2.6 | 27.1 ± 1.4 | – | –
24 | 235 to 237 | N=C(N)Nc1nnc2nnc(SCc3cccc(F)c3)n2n1 [Compound 16] | 14.1 ± 0.3 | 26.3 ± 1.1 | 25.9 ± 1.6 | – | –
25 | 211 to 214 | Nc1ccc(-c2cc(-c3cccs3)n3ncnc3n2)cc1 [Compound 7b, 4-(7-(Thiophen-2-yl)-[1,2,4]triazolo[1,5-a]pyrimidin-5-yl)aniline] | 13.6 ± 0.5 | 35.0 ± 0.2 | 32.3 ± 0.9 | – | –
